Consider one compound from patent US4025508A, “6-(Trifluoromethyl)-benzothiadiazines” (Serdex - Societe d'Etudes, de Recherches, de Diffusion et …, priority 1973, dated 1977).

Data set [1] relates to glycemia. Put plainly: Hyperglycemia-producing activity, tests in rats (glycemia). The data set is classed as in vivo, rat (adult white rats). The procedure: The following test methods were used to determine the hyperglycemia-producing activity:
The experiments were conducted in adult white rats weighing 200 g+ 10 g.
The products were administered as a suspension in gummy julep, by stomach tube, at dosages of 10, 20 and 100 mg/kg, p.o.
At each dosage level, and in each case, lots of 10 test animals (5 male and 5 female) and of 10 reference animals (5 male and 5 female, administered only the gummy Julep) were used.
Blood samples were taken by cardiac puncture, at times 15, 60 minutes and 2, 4 and 24 hours after administration of the products, and the glycemia was determined.

For data set [2], the system named is glycemia. The data set is described as follows: Hyperglycemia-producing activity, tests in dogs (glycemia). The class given is in vivo, dog. The conditions noted are these: p.o.
In data set [3] the test system is cardiovascular parameters. Put plainly: Cardiovascular parameters (blood pressures, cardiac rhythm) in anesthetized dogs. The class given is in vivo, dog. The note with it: 100 mg/kg, p.o.
The nature of data set [4]: Acute toxicity (LD50 /24 hours). The note with it: in vivo, po.

As a reminder, the LD50 is the dose at which mortality reaches 50%. A lower LD50 goes with greater toxicity. Compound `O=S1(=O)NC=Nc2cc(C(F)(F)F)c(F)cc21` [Example 1, 6-trifluoromethyl-7-fluoro-2H-1,2,4-benzothiadiazine-1,1-dioxide] gave a glycemia after administration in the data set on glycemia [1] (100 mg/kg p.o., twenty-four hours after administration, from 0.839± 0.042 g/l) of 1.212 ± 0.041 g/L. Moreover, the “action on the glycemia” value with glycemia [1] (10 or 20 mg/kg, p.o.) is recorded as “no significant action”. Also, the “increase of the glycemia” value in the data set with glycemia [2] (100 mg/kg) is recorded as “about 25%”. The “action on the glycemia” value in the data set with glycemia [2] (10 or 20 mg/kg) was “no significant action”. Besides, in data set [3], the “action on the cardiac rhythm” value was “nor on the cardiac rhythm”, the “action on the diastolic pressure” value is “no significant action”, the “action on the differential pressure” value is recorded as “no significant action” and the “action on the mean pressure” value is recorded as “no significant action”. Also, the “action on the systolic pressure” value in data set [3] was “no significant action”. The compound further showed an LD50 at 24 h in data set [4] of 3230 mg/kg.
